Read-outs that look alike come from different tables or passages of the source.
How the values were obtained:
11beta-HSD1 [1] = target: T1, 11beta-HSD1 (Homo sapiens, UniProt P28845); test: In vitro inhibition of recombinant human 11beta-HSD1 (microsomal Scintillation Proximity Assay); type: biochemical; design: made in house; microsomal fraction used as enzyme source; conditions: microsomes from HEK 293 EBNA cells, 250 nM [3H]-cortisone, 500 μM NADPH, pH 6.5, room temperature
Experimental: The in vitro inhibition of recombinant human 11beta-HSD1 was determined as follows.
Cells were grown in DMEM (high glucose) containing MEM non-essential amino acids, L-glutamine, hygromycine B (200 ug/ml), and G418(200 ug/ml). The cell pellets were homogenized, and the microsomal fraction was obtained by differential centrifugation. 11beta-HSD1 over expressed microsomes were used as the enzyme source for the Scintillation Proximity Assay (SPA). […] The reaction was terminated with the addition of 1 mM 18β-glycerrhentic acid. SPA reagent mixture (YSi anti-rabbit IgG, anti-cortisol antibody in 50 mM Tris, pH 8.0 containing 1% CHAPS and 1% glycerol) was added and the reaction was further incubated at room temperature over night and counted in TopCount. […]

11beta-HSD1 [2] = target: T1, 11beta-HSD1; design: host or cells: patients (liver), in vivo; conditions: patients with type 2 diabetes, seven day treatment, versus placebo; cited from earlier work

T1 sequence (P28845 whole entry): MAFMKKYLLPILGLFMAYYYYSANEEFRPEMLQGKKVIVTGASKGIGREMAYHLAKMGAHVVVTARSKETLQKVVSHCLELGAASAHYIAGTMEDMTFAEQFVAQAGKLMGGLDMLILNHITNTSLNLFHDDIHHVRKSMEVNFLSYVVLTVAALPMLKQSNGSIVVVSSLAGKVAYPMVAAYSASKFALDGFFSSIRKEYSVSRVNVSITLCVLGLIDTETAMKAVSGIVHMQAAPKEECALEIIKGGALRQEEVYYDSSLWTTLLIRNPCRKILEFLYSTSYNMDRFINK

IC50 (11beta-HSD1 [1]) [nM] | Compound | other results
3 | N#Cc1cccc(Cl)c1CSc1nc(O)c(C#N)c2ccc(F)cc12 [Example 181] | –
2.58 | N#Cc1c(O)nc(SCc2cc(F)ccc2F)c2cc(F)ccc12 [Example 175] | –
2.7 | N#Cc1ccccc1CSc1nc(O)c(Cl)c2ccccc12 [Example 130] | –
288 | N#Cc1ccccc1-c1c(O)nc(SCc2ccccc2Cl)c2c1CCCC2 [Example 292] | –
2.73 | N#Cc1c(O)nc(SCc2cnccc2Cl)c2cc(F)ccc12 [Example 164] | –
2.26 | N#Cc1ccccc1CSc1nc(O)c(Cl)c2ccc(Cl)cc12 [Example 132] | –
> 10000 | NC(=O)c1c(O)nc(SCc2ccccc2Cl)c2c1CCCC2 [Example 3, 1-(2-Chlorobenzylthio)-3-hydroxy-5,6,7,8-tetrahydroisoquinoline-4-carboxamide] | –
1.49 | N#Cc1ccncc1CSc1nc(O)c(C#N)c2ccc(F)cc12 [Example 170] | –
470 | O=C(O)c1c(O)nc(SCc2ccccc2Cl)c2c1CCCC2 [Example 6, 1-(2-Chlorobenzylthio)-3-hydroxy-5,6,7,8-tetrahydroisoquinoline-4-carboxylic acid] | –

Further lines, the compound ahead of its results:

Compound | IC50 (11beta-HSD1 [1]) [nM] | other results
O=S(=O)(Cc1cccc(Cl)c1)c1nc(O)c(Cl)c2ccccc12 [Example 118] | 530 | –
N#Cc1c(O)nc(SCc2cccnc2Cl)c2c1CCCC2 [Example 32] | 2.73 | –
N#Cc1c(O)nc(SCc2ccccc2Cl)c2c1CCNC2 [Example 35] | 460 | –
Oc1nc(SCc2cccc(Cl)c2)c2ccccc2c1Cl [Example 115] | 780 | –
Oc1cc2c(c(SCc3ccccc3Cl)n1)N1CCC2CC1 [Example 29] | > 10000 | –
CC1(C)[C@@H](OC(=O)CCC(=O)O)CC[C@]2(C)[C@H]3C(=O)C=C4[C@@H]5C[C@@](C)(C(=O)O)CC[C@]5(C)CC[C@@]4(C)[C@]3(C)CC[C@@H]12 [carbenoxolone] | – | hepatic glucose production (11beta-HSD1 [2]): decrease in hepatic glucose production
4,7-Dichloro-1-(2-chlorobenzylthio)isoquinolin-3-ol [Example 109] | – | IC50 (11beta-HSD1 [1]; read-out: IC50 (concentration of compound required for 50% inhibition of cortisol formation)): 671 nM
